Reference: patent US9556159B2, “Renin inhibitor” (MITSUBISHI TANABE PHARMA CORPORATION, priority 2012, dated 2017)
pIC50: −log10 of the molar value. Like-named read-outs stand apart in the source and are kept apart here.

Target: T1, Recombinant human renin (Homo sapiens, UniProt P00797)
T1 sequence (P00797 67-406): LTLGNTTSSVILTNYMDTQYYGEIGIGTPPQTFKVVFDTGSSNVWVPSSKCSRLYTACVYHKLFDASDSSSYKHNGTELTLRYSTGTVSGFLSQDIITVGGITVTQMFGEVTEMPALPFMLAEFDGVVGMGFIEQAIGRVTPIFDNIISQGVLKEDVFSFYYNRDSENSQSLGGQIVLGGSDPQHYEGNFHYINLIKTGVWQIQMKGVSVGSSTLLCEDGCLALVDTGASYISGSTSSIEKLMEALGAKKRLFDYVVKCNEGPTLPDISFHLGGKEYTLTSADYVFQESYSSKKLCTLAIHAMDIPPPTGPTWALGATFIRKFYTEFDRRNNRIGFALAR
Experiment: Inhibitory activity against human renin (fluorogenic peptide substrate)
Type: biochemical
Conditions: 37° C. for 1 hour
Experimental: Inhibitory Activity Against Human Renin
A substrate of synthetic peptide (Nma-KHPFH LVIHK(Dnp)-NH2) and test compound were mixed, and fluorescence intensity was assayed using a fluorophotometer before starting an enzymatic reaction (exciting wavelength: 340 nm, measuring wavelength: 460 nm). Recombinant human renin was added and the mixture was incubated at 37° C. for 1 hour, and the fluorescence intensity was measured after the reaction using a fluorophotometer (exciting wavelength: 340 nm, measuring wavelength: 460 nm).

[1] = 50% inhibitory concentration (IC50) against human renin

COCc1ccc([C@@H](C)N(C(=O)[C@H]2CNCCO2)C2CC2)cc1CCCNC(=O)OC [Example 96]
pIC50 (read-out: IC50): 9.10

COC(=O)NCCCc1cc([C@@H](C)N(C(=O)[C@H]2CNCCO2)C2CC2)cc(C)n1 [Example 97]
pIC50 (read-out: IC50): 8.09

COC(=O)NCCCc1cc([C@@H](C)N(C(=O)[C@H]2CNCCO2)C2CC2)cc(Cl)n1 [Example 98]
pIC50 (read-out: IC50): 8.55

COC(=O)NCCCc1cc([C@@H](C)N(C(=O)[C@H]2CNCCO2)C2CC2)cc(C(C)C)n1 [Example 99]
pIC50 (read-out: IC50): 8.74

COC(=O)NCCCn1nc([C@@H](C)N(C(=O)[C@H]2CNCCO2)C2CC2)c2ccc(CN(C)C)nc21 [Example 100]
pIC50 (read-out: IC50): 8.05

CCOc1ccnc2c([C@@H](C)N(C(=O)[C@H]3CNCCO3)C3CC3)cn(CCCCOC)c12 [Example 101]
pIC50 (read-out: IC50): 8.60

COC(=O)NCCCn1cc([C@@H](C)N(C(=O)[C@H]2CNCCO2)C2CC2)c2ncc(C)nc21 [Example 102]
pIC50 (read-out: IC50): 9.40

COCCCCn1cc([C@@H](C)N(C(=O)[C@H]2CNCCO2)C2CC2)c2cnc(C)nc21 [Example 103]
pIC50 (read-out: IC50): 8.68

COC(=O)NCCOc1cc([C@@H](C)N(C(=O)[C@H]2CNCCO2)C2CC2)nc2c1CCCC2 [Example 104]
pIC50 (read-out: IC50): 8.09

COCc1ccc2c([C@@H](C)N(C(=O)[C@H]3CNCCO3)C3CC3)nn(CCCNC(=O)OC)c2n1 [Example 105]
pIC50 (read-out: IC50): 8.92

CCOc1ccc([C@@H](C)N(C(=O)[C@H]2CNCCO2)C2CC2)cc1CCCNC(=O)OC [Example 106]
pIC50 (read-out: IC50): 9.15

COC(=O)NCCCc1cc([C@@H](C)N(C(=O)[C@H]2CNCCO2)C2CC2)ccc1OC(C)C [Example 107]
pIC50 (read-out: IC50): 9.15

COC(=O)NCCc1cn(C)c2ccc([C@@H](C)N(C(=O)[C@H]3CNCCO3)C3CC3)cc12 [Example 108]
pIC50 (read-out: IC50): 8.96

CCc1cc([C@@H](C)N(C(=O)[C@H]2CNCCO2)C2CC2)cc(OCCNC(=O)OC)n1 [Example 109]
pIC50 (read-out: IC50): 8.47

COCCCCc1cc([C@@H](C)N(C(=O)[C@H]2CNCCO2)C2CC2)cc(C(C)C)n1 [Example 110]
pIC50 (read-out: IC50): 9.05

COC(=O)NCCCn1nc([C@@H](C)N(C(=O)[C@H]2CNCCO2)C2CC2)c2ccc(CN(C)C)cc21 [Example 111]
pIC50 (read-out: IC50): 8.46

CCc1cc([C@@H](C)N(C(=O)[C@H]2CNCCO2)C2CC2)cc(CCCCOC)n1 [Example 112]
pIC50 (read-out: IC50): 8.70

COCCCc1cn(C)c2c(C)nc([C@@H](C)N(C(=O)[C@H]3CNCCO3)C3CC3)cc12 [Example 113]
pIC50 [1]: 8.85

COC(=O)NCCCn1cc([C@@H](C)N(C(=O)[C@H]2CNCCO2)C2CC2)c2ncc(Br)cc21 [Example 114]
pIC50 [1]: 8.96

COCCCCn1cc([C@@H](C)N(C(=O)[C@H]2CNCCO2)C2CC2)c2nccc(COC)c21 [Example 115]
pIC50 [1]: 8.74

COC(=O)NCCCc1cc([C@@H](C)N(C(=O)[C@H]2CNCCO2)C2CC2)nc2ccccc12 [Example 119]
pIC50 [1]: 9.30

CCc1cc(CCCNC(=O)OC)cc([C@@H](C)N(C(=O)[C@H]2CNCCO2)C2CC2)n1 [Example 120]
pIC50 [1]: 8.77

COC(=O)NCCCc1cc([C@@H](C)N(C(=O)[C@H]2CNCCO2)C2CC2)ncc1OC [Example 121]
pIC50 [1]: 8.27

COC(=O)NCCCc1cc([C@@H](C)N(C(=O)[C@H]2CNCCO2)C2CC2)nc2c1CCCC2 [Example 122]
pIC50 [1]: 9.70

COCCCCc1cc([C@@H](C)N(C(=O)[C@H]2CNCCO2)C2CC2)nc2c1CCCC2 [Example 123]
pIC50 [1]: 9.10

COCCCc1cn(C)c2cnc([C@@H](C)N(C(=O)[C@H]3CNCCO3)C3CC3)cc12 [Example 125]
pIC50 [1]: 8.89

CCc1ncc([C@@H](C)N(C(=O)[C@H]2CNCCO2)C2CC2)cc1CCCCOC [Example 126]
pIC50 [1]: 8.22

COC(=O)NCCCc1cc([C@@H](C)N(C(=O)[C@H]2CNCCO2)C2CC2)cnc1-c1ccccc1 [Example 128]
pIC50 [1]: 8.85

COC(=O)NCCCc1cc([C@@H](C)N(C(=O)[C@H]2CNCCO2)C2CC2)cc(C2CC2)n1 [Example 129]
pIC50 [1]: 8.89

CCc1cn(CCCOC)c2cc([C@@H](C)N(C(=O)[C@H]3CNCCO3)C3CC3)nc(Cl)c12 [Example 130]
pIC50 [1]: 8.82

COC(=O)NCCCc1cc(C2CC2)nc([C@@H](C)N(C(=O)[C@H]2CNCCO2)C2CC2)c1 [Example 133]
pIC50 [1]: 8.80

COCCCCn1cc([C@@H](C)N(C(=O)[C@H]2CNCCO2)C2CC2)c2ccnc(C)c21 [Example 134]
pIC50 [1]: 8.20

COC(=O)NCCCn1cc([C@@H](C)N(C(=O)[C@H]2CNCCO2)C2CC2)c2cnc(C)cc21 [Example 135]
pIC50 [1]: 8.20

COC(=O)NCCCn1cc([C@@H](C)N(C(=O)[C@H]2CNCCO2)C2CC2)nc1-c1ccccc1 [Example 136]
pIC50 [1]: 9.52

COC(=O)NCCCc1cc([C@@H](C)N(C(=O)[C@H]2CNCCO2)C2CC2)cnc1C1CCCC1 [Example 137]
pIC50 [1]: 9.40

COC(=O)NCCCn1cc(C(C)N(C(=O)[C@H]2CNCCO2)C2CC2)c2ccnc(C)c21 (stereo partly drawn) [Example 138]
pIC50 [1]: 8.21

COC(=O)NCCCn1cc(C(C)N(C(=O)[C@H]2CNCCO2)C2CC2)c2ncc(F)cc21 (stereo partly drawn) [Example 139]
pIC50 [1]: 8.68

CCc1nc([C@@H](C)N(C(=O)[C@H]2CNCCO2)C2CC2)cc2c1c(C)cn2CCCOC [Example 140]
pIC50 [1]: 9.10

COC(=O)NCCCc1cc([C@@H](C)N(C(=O)[C@H]2CNCCO2)C2CC2)nc2ccc(OC)cc12 [Example 141]
pIC50 [1]: 9.30

COC(=O)NCCCc1cc([C@@H](C)N(C(=O)[C@H]2CNCCO2)C2CC2)nc2ccc(F)cc12 [Example 142]
pIC50 [1]: 9.30

COC(=O)NCCCc1cc([C@@H](C)N(C(=O)[C@H]2CNCCO2)C2CC2)nc2cc(F)c(F)cc12 [Example 143]
pIC50 [1]: 8.82

COC(=O)NCCCc1cc([C@@H](C)N(C(=O)[C@H]2CNCCO2)C2CC2)nc2ccc(C)cc12 [Example 144]
pIC50 [1]: 9.15

COC(=O)NCCCc1cc([C@@H](C)N(C(=O)[C@H]2CNCCO2)C2CC2)cc2cccnc12 [Example 145]
pIC50 [1]: 9.30

COC(=O)NCCCc1cc([C@@H](C)N(C(=O)[C@H]2CNCCO2)C2CC2)nc2ccc(C#N)cc12 [Example 146]
pIC50 [1]: 9.00

CCc1nc([C@@H](C)N(C(=O)[C@H]2CNCCO2)C2CC2)cc2c1ccn2Cc1ccccc1 [Example 147]
pIC50 [1]: 8.60

Cc1nc([C@@H](C)N(C(=O)[C@H]2CNCCO2)C2CC2)cc2c1ccn2Cc1ccccc1 [Example 148]
pIC50 [1]: 8.29

COC(=O)NCCCc1cc([C@@H](C)N(C(=O)[C@H]2CNCCO2)C2CC2)cc2ncccc12 [Example 149]
pIC50 [1]: 9.10

CCc1cn(CCCOC)c2cc([C@@H](C)N(C(=O)[C@H]3CNCCO3)C3CC3)nc(C#N)c12 [Example 150]
pIC50 [1]: 8.59

COC(=O)NCCN1CC(C)(C)c2ccc([C@@H](C)N(C(=O)[C@H]3CNCCO3)C3CC3)cc21 [Example 151]
pIC50 [1]: 9.00

CCc1cn(CCCOC)c2cc([C@@H](C)N(C(=O)[C@H]3CNCCO3)C3CC3)nc(CC)c12 [Example 152]
pIC50 [1]: 8.96

COCCCn1cc(COC)c2c(C(C)C)nc([C@@H](C)N(C(=O)[C@H]3CNCCO3)C3CC3)cc21 [Example 153]
pIC50 [1]: 8.66

COC(=O)NCc1cc([C@@H](C)N(C(=O)[C@H]2CNCCO2)C2CC2)nc2ccccc12 [Example 154]
pIC50 [1]: 8.62

CCc1nc([C@@H](C)N(C(=O)[C@H]2CNCCO2)C2CC2)cc2c1c(F)cn2CCCOC [Example 155]
pIC50 [1]: 9.10

COc1ccc2nc([C@@H](C)N(C(=O)[C@H]3CNCCO3)C3CC3)cc(CCCNC(C)=O)c2c1 [Example 156]
pIC50 [1]: 8.68
